Assays:
Assay type in all cases: cell-based, human
[1] = tested on: U251MG glioma cells; assay: Cell proliferation, counting in a Neubauer chamber; details: increasing concentrations, several days (FIG. 1A)
Method: 20,000 U251MG glioblastoma cells or human astrocytic cells (ScienCell) were plated into 96-well plates. After 24 h cells were treated with rhHMGB1 (Sigma Aldrich) or rat recombinant HMGB1 (generously provided by Angelika Bierhaus, Heidelberg, Germany), and TRAIL (for 24 h) or Temozolomide (for 72 h) alone or in combination, respectively. Cell survival was measured by crystal violet staining as described previously (Gdynia et al., 2007). Cell proliferation was assessed by seeding 50,000 U251 MG cells in 6 cm culture plates and treatment with rhHMGB1, followed by counting the cells in a Neubauer chamber at day 0, 2, 4 and 5.

[2] = tested on: U251MG cells; assay: Megamitochondria formation, COX IV immunofluorescence and electron microscopy
Method: U251MG cells were plated onto 8 well chamber-slides (Nunc, Wiesbaden, Germany) or grown confluently in 6 cm culture dishes containing round glass cover plates. For some samples, the cells were stained with the fluorescent dye MitoTracker Red CMXRos (50 nM, Molecular Probes, Invitrogen, Karlsruhe, Germany) for 30 min at 37° C. 24 h after seeding, the cells were fixed for 15 min with 2% paraformaldehyde solution or pre-cooled 100% methanol (on ice), washed 3× with PBS, permeabilized on ice with PBS containing 0.2% TritonX-100 and 1% fetal calf serum for 5 min and washed again three times with PBS containing 1% or 5% FCS. After blocking with PBS containing 1% or 5% FCS at room temperature for 60 min, permeabilized cells were incubated with monoclonal rabbit fluoro-conjugated anti-COX IV antibody (1:10, 3E11, Alexa Fluor 488 conjugate, Cell Signaling) or monoclonal mouse anti-polyhis-tag antibody (1:1000, R&D Systems) for 30 min at 4° C. and then washed three times with PBS with 1% or 5% FCS. In case the primary antibody was unconjugated to a fluorescent dye, goat anti-mouse or anti-rabbit secondary antibody Alexa Fluor® 488 or […] (1:200, Invitrogen GmbH, Karlsruhe, Germany) together with 1 μg/ml 4′,6-Diamidino-2-phenylindol (DAPI) was added for 30 min at 4° C. in a dark chamber. After washing three times with PBS with 1% or 5% FCS, cells were covered with cover slips. Photomicrographs were taken using a Olympus VANOX-T (AH-2) fluorescence microscope with immersion oil, ne 23=1.518 and the Soft Imaging System AnalysisB software (Leica Microsystems, Wetzlar, Germany) or on a confocal microscope (Leica SP2).
Cells were fixed in situ with 2.3% glutaraldehyde in 50 mM sodium cacodylat (pH 7.2) for 30 min at 4° C., scraped from the plates, collected by low-speed centrifugation at 200×g for 10 min at 4° C. and successively stained with 2% osmium tetroxide and 0.5% uranyl acetate. After dehydration and embedding in Epru the probes were processed for ultrathin section. Micrographs were taken with a Zeiss EM-10A electron microscope at 80 kV. The magnification indicator was routinely controlled by the use of a grating replica.

[3] = tested on: U251MG glioma cells; assay: Subcellular fractionation after iodine-125 labelled rhHMGB1; immunofluorescence colocalization; details: 40 nM for 24 h (FIG. 8B)
Method: U251 cells were seeded on 10 cm culture dishes. […], 4 h, 16 h and 24 h, the cells were detached carefully by incubation with cell dissociation buffer (30 min) in order to protect possible surface proteinreceptor-complexes, harvested, and subjected to subcellular fractionation using the ApoAlert Fractionation Kit as described below (the plasma membrane fraction was extracted from the cytoplasmatic fraction by a last centrifugation step of 400.000×g for 15 min at 4° C.). Successful fractionation was confirmed by western blot. Successful coupling of the HMGB1-tyrosine residues with I-125 was shown by the high radioactivity in the protein fraction of sephadex G25 gel filtration (early eluates). Fraction 4 was used for the incubation of cells with I-125-HMGB1. For radioactivity measurements cells were solubilized in 0.5M NaOH and mixed with 10 ml LSC cocktail (Ultima Gold, Perkin Elmer, Waltham Mass.). The radioactivity of each subcellular fraction was measured in a liquid scintillation counter (Packard TriCarb 2900, Meriden, Ill.) by using the Compton effect.
Enrichment of mitochondrial fractions was performed using the ApoAlert Cell Fractionation Kit (Clontech, Mountain View, Calif.) as described previously (Gdynia et al., 2008). […]

[4] = tested on: JNK1/2; assay: Western blot analysis of JNK1/2 phosphorylation; details: 24 h (FIG. 3C)
Method: The U251 MG tumor cells were lysed in lysis buffer containing 20 mmol/L Tris-HCl (pH 7.4), 137 mmol/L NaCl, 10% (v/v) glycerine, 1% Triton X-100, 2 mmol/L EDTA, 100 mmol/L phenylmethylsulfonyl fluoride, and protease inhibitors (Complete mini; Roche Molecular Biochemicals). For the detection of phosphoprotein levels, 10 mmol/L NaPPi, 50 mmol/L NaF, and 20 mmol/L NaVO4 were added to the lysis buffer. After 15 min incubation on ice, the lysates were centrifuged at 14,000×g for 10 min. The total protein concentration of the lysates was measured using the Bradford assay (Bio-Rad). Soluble protein (25-100 μg per lane) was separated on 10% to 15% polyacrylamide gels and blotted onto nitrocellulose by standard procedures. […]

## rhHMGB1: recombinant human High Mobility Group B1 protein (Sigma Aldrich)
[1]
  induction of cell death: induction of cell death even at low nanomolar concentrations
  tumor cell proliferation: strong inhibition
[2]; FIG. 8C
  formation of megamitochondria, COX IV immunofluorescence: generation of extremely enlarged spherical mitochondria
[2]; FIG. 10
  autophagosomes or rupture of the outer cell membrane, electron microscopy: not observed
  number and size of megamitochondria, electron microscopy: increased in a time- and concentration-dependent manner
[2]; after rhHMGB1 treatment
  typical morphological features of apoptosis (membrane blebbing, apoptotic bodies, chromatin condensation): could not be detected
[3]
  mitochondrial localization, co-staining with mitochondrial marker (MitoTracker): confirmed
[4]
  phosphorylation of c-Jun N-terminal kinase 1/2 (JNK): continuous and dose dependent phosphorylation

Reference: patent US20110123483A1, “HMGB1 FOR CANCER TREATMENT” (DEUTSCHES KREBSFORSCHUNGSZENTRUM, priority 2009, published 2011)
